Holding throughout (type): cell-based
Data set [1] relates to Normal human keratinocytes (KHN). Description: Antiproliferative effect: BrdU incorporation by human keratinocytes (ELISA). The note with it: for % incorporation of BrdU/control: 48 hours, 10% FCS; for effect on proliferation of keratinocytes (in words): dose-dependent mitotic decrease. The method, then: This test is based on the determination of the cellular growth rate. Cells are cultivated in complete medium enriched in FCS (10%) so as to obtain a population in active growth, Mitotic activity is assessed by the incorporation of a nucleotide base analog in DNA during replication: […] replaces thymidine. With a product slowing mitosis, a decrease in BrdU incorporation in cell DNA is to be expected.
Normal human keratinocytes (KHN) cultured with 10% FCS were incubated in the presence or absence of palmatine, or chelidonine at various concentrations for 48 hours.
After the first 24 hours, BrdU was added to the culture medium and the mitosis marker was allowed to act for 24 hours.
After 48 hours, the cells were lysed and the BrdU incorporation rate was determined by an ELISA method.
(In general: Dividing cells build labelled thymidine or BrdU into new DNA.)

Data set [2] has as its system keratinocytes. Kind of data set: Toxicity evaluation on keratinocytes, Hoescht (number of cells). The note with it: for Hoescht % Change: percent of negative controle.
Data set [3] deals with keratinocytes. Kind of data set: Toxicity evaluation on keratinocytes, MTT (mitochondrial respiration). The note with it: for MTT % Change: percent of negative controle.
For data set [4], the system named is fibroblasts. Kind of data set: Toxicity evaluation on fibroblasts, MTT (mitochondrial respiration). The note with it: for MTT % Change: percent of negative controle.
The test system of data set [5] is keratinocytes. Kind of data set: Variation of the incorporation of BrdU, keratinocytes with palmatine or berberine. The note with it: 48 hours of contact.
The test system of data set [6] is fibroblasts. Kind of data set: Toxicity evaluation on fibroblasts, Hoescht (number of cells). The note with it: for Hoescht % Change: percent of negative controle.
The mark [7] stands for this setting: keratinocytes, at the tested concentrations.
Setting [8] is: keratinocytes, concentration 3.10^E−4%.
[9] abbreviates: keratinocytes, concentration 10^E−3%.
[10] abbreviates: fibroblasts, at the tested concentrations.
[11] abbreviates: fibroblasts, concentration 3.10^E−4%.
The mark [12] stands for this setting: fibroblasts, concentration 9.10^E−4%.

Like-named read-outs stand apart in the source and are kept apart here. Marks after values point to notes of the source that are not given here.

Regarding `CN1Cc2c(ccc3c2OCO3)[C@@H]2[C@H]1c1cc3c(cc1C[C@@H]2O)OCO3` [Chelidonine, chelidonine], the “% incorporation of BrdU/control” value in data set [1] (concentration 3 × 10E−4%) is listed as −41%; in data set [1] (concentration 10E−4%), −31%; in data set [1] (concentration 10 × 10E−4%), −74%. Moreover, in data set [1], the “effect on proliferation of keratinocytes (in words)” value is recorded as “inhibit the proliferation of keratinocytes”.

Regarding `COc1cc2c(cc1OC)-c1cc3ccc(OC)c(OC)c3c[n+]1CC2` [palmatine], in data set [2] (setting [7]), the “effect on the number of keratinocytes (in words)” value is listed as “does not act on the number of keratinocytes”. Moreover, the “Hoescht % Change” value was −1 dns % in data set [2] (setting [8]), −2 dns % in data set [2] (setting [9]), 1dns % in data set [6] (setting [11]) and −1 dns % in data set [6] (setting [12]). In addition, the “change of the mitochondrial respiration (in words)” value in data set [3] (setting [7]) and in data set [4] (setting [10]) was “does not engender a change of the mitochondrial respiration” throughout. Also, the “MTT % Change” value in data set [3] (setting [8]) is 7 dns %; in data set [3] (setting [9]) it was 5 dns %; in data set [4] (setting [11]), 0 dns %; in data set [4] (setting [12]) it was −9 dns %. Moreover, the “toxicity on keratinocytes (conclusion in words)” value in data set [3] (keratinocytes, with respect to the different results) is “not toxic”. Moreover, the “% incorporation of BrdU/control” value in data set [1] (concentration 3 × 10E−4%) is reported as −35%; in data set [1] (concentration 10E−4%), −21%; in data set [1] (concentration 10 × 10E−4%), −58%. Moreover, the “effect on proliferation of keratinocytes (in words)” value in data set [1] is given as “inhibit the proliferation of keratinocytes”. Further, in data set [4] (fibroblasts, MTT and Hoescht), the “toxicity on fibroblasts (conclusion in words)” value is given as “not toxic on fibroblasts”. The “% Change of the incorporation of BrdU” value in data set [5] (concentration 3.10^E−4%) is −16%**; in data set [5] (concentration 10^E−3%), −21%**. Also, the “effect on the number of fibroblasts (in words)” value in data set [6] (setting [10]) is reported as “does not act on the number of fibroblasts”.

Consider `COc1ccc2cc3[n+](cc2c1OC)CCc1cc2c(cc1-3)OCO2` [BERBERINE, berberine], for which, in data set [2], the “effect on the number of keratinocytes (in words)” value is reported as “a decrease on the number of keratinocytes”. Further, the “change of the mitochondrial respiration (in words)” value in data set [3] and in data set [4] was “engenders a change of the mitochondrial respiration” in each case. In addition, the “toxicity on keratinocytes (conclusion in words)” value in data set [3] is given as “toxic effect”. In addition, the “toxicity on fibroblasts (conclusion in words)” value in data set [4] is on record as “toxic effect on fibroblasts”. Further, the “% Change of the incorporation of BrdU” value in data set [5] (concentration 3.10^E−4%) is −36%**; in data set [5] (concentration 10^E−3%) it was −65%**. Besides, in data set [6], the “effect on the number of fibroblasts (in words)” value is “a decrease on the number of fibroblasts”.
